Results taken from patent US10865222B2, “Neisseria gonorrhoeae therapeutic based on CMP-nonulosonate sugars” (priority 2014, dated 2020).

Legend:
[1] = test system: Ng F62 (wildtype [WT]); test: BALB/c vaginal colonization model, Ng F62; type: in vivo, N. gonorrhoeae; conditions: 10 μg intravaginally daily
Description: FIG. 13. […] A and B. Efficacy of CMP-Leg5Ac7Ac against Ng F62. 17β-estradiol treated BALB/c mice were infected with i) Ng F62 (wildtype [WT]) and treated (CMP-Leg5Ac7Ac, 10 μg intravaginally, daily), ii) Ng F62 WT→saline (No treatment) or iii) Ng F62 Δlst (cannot sialylate LOS), untreated. Ng load in the vagina was enumerated daily. A. Time to clearance. B. Area under the curve (AUC; each point represents the AUC of CFU vs. time for each mouse). Horizontal bar, geometric mean. C and D. Efficacy of CMP-Leg5Ac7Ac vs ceftriaxone-resistant isolate H041. Time to clearance (C) and AUC analysis (D) are described above.
The efficacy of CMP-Leg5Ac7Ac against Ng was tested in the BALB/c vaginal colonization model (FIG. 13) (51). Three groups of 17β-estradiol treated BALB/c mice (10 mice/group) were infected as follows: i) WT F62→CMP-Leg5Ac7Ac (10 μg intravaginally daily), ii) WT F62→saline control (‘untreated’) and iii) F62 List (cannot sialylate LOS)→untreated.

[2] = type: physicochemical
Description: Importantly, Neu5Ac9Az/Neu5Ac9Ac and Leg5Ac7Ac differ from Neu5Ac at carbon 9 and carbons 7 and 9, respectively. As well, Neu5Gc8Me differs from Neu5Gc at carbon 8. As such, carbons 7, 8 and 9 within the exocyclic moiety of nonulosonate sugars appear to play a critical role in the avoidance of serum mediated killing by N. gonorrhoeae, as evidenced by the enhanced serum-mediated killing with CMP-Neu5Ac9Az, CMP-Neu5Ac9Ac, CMP-Leg5Ac7Ac and CMP-Neu5Gc8Me, that was not observed with either CMP-Neu5Ac or CMP-Neu5Gc only feeding controls.

| Compound | Ng infection (time to clearance, AUC of CFU vs. time) ([1]; 17β-estradiol treated BALB/c mice, vs saline) | sensitivity to human complement of bacteria recovered directly from treated mice ([1]; BALB/c mice, not shown) | stability of the preparation [2] |
| --- | --- | --- | --- |
| 5,7-diacetamido-3,5,7,9-tetradeoxy-D-glycero-D-galacto-nonulosonic acid [CMP-Leg5Ac7Ac] | significantly attenuated Ng infection | became sensitive to human complement | – |
| CC(=O)N[C@H]1[C@H]([C@H](O)[C@H](O)COC(C)=O)OC(OP(=O)(O)OC[C@H]2O[C@@H](n3ccc(N)nc3=O)[C@H](O)[C@@H]2O)(C(=O)O)C[C@@H]1O (stereo partly drawn) [CMP-Neu5Ac9Ac, CMP-5-acetamido-9-O-acetyl-3,5-dideoxy-D-glycero-D-galacto-nonulosonic acid] | – | – | spontaneous breakdown of the 9OAc group |
